The target in assay [1] is T1, HMG-CoA reductase (Rattus norvegicus, UniProt P51639).
T1 construct: In the assay the microsomes are the source of the HMG-CoA reductase enzyme; from tissue; host or cells: rat liver microsomes (male Sprague-Dawley rats)
T1 sequence (P51639 1-887): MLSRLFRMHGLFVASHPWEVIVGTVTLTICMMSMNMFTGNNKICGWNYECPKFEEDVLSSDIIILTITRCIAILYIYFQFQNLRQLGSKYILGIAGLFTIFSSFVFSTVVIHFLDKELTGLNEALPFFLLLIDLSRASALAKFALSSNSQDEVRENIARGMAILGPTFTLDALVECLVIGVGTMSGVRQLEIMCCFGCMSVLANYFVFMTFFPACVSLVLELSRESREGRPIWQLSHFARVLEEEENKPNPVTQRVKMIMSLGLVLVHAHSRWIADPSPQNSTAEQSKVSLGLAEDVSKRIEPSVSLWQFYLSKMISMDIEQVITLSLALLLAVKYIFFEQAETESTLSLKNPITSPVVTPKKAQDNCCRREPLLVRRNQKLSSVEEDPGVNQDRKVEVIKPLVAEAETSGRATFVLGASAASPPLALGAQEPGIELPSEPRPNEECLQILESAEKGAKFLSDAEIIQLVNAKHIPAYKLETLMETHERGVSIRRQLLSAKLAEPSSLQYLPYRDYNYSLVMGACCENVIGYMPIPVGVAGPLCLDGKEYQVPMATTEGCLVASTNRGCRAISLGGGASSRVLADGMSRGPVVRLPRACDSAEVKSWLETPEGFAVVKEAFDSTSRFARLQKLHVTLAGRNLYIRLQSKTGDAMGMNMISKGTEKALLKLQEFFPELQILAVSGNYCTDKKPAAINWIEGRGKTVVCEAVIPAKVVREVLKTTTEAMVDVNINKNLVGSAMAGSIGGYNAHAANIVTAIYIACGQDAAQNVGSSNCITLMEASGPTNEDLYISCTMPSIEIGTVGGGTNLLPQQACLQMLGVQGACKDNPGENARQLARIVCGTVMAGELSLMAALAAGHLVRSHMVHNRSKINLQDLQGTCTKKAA
Kind of assay: Test A. In Vitro Microsomal Assay of HMG-CoA Reductase Inhibition. The assay is classed as biochemical. The settings on record: rat liver microsomal suspensions, male Sprague-Dawley rats; read-out: IC50 (concentration of the test substance calculated to produce a 50% inhibition of HMG-CoA reductase activity). Here is the method: Test A. In Vitro Microsomal Assay of HMG-CoA Reductase Inhibition:
200 μl. aliquots (1.08-1.50 mg./ml.) of rat liver microsomal suspensions, freshly prepared from male Sprague-Dawley rats (150-225 g. body weight), in Buffer A with 10 mmol. dithiothreitol are incubated with 10 μl. of a solution of the test substance in dimethylacetamide and assayed for HMG-CoA reduotase activity as described in Ackerman et al., J. Lipid Res. 18, 408-413 (1977). In the assay the microsomes are the source of the HMG-CoA reductase enzyme which catalyzes the reduction of HMG-CoA to mevalonate. The assay employs a chloroform extraction to separate the product, [^14 C]mevalonolactone, formed by the HMG-CoA reductase reaction from the substrate, [^14 C]HMG-CoA. [^3 H]mevalonolactoneis added as an internal reference. Inhibition of HMG-CoA reductase is calculated from the decrease in specific activity ([^14 C/^3 H]mevalonate) of test groups compared to controls.
IC50 is the concentration of the test substance in
the assay system calculated to produce a 50%
inhibition of HMG-CoA reductase activity.

The subject of assay [2] is cholesterol biosynthesis. Kind of assay: Test C: In Vivo Cholesterol Biosynthesis Inhibition Test. The note with it: for change in sterol synthesis (nCi of sterols formed) from test groups compared to controls: at 0.5 mg./kg.; for ED50: Rattus norvegicus, ip, read-out: ED50 (inhibition of sterol synthesis). On the set-up: species or system rat. An excerpt: Test C: In Vivo Cholesterol Biosynthesis Inhibition Test: In vivo studies utilize male Wistar Royal Hart rats weighing 150±20 g. which have been kept for 7-10 days on an altered light cycle (6:30 A.M.-6:30 P.M. dark) housed two per cage and fed powdered Purina Rat Chow and water ad libitum. […] Controls receive vehicle alone. […] Two hours after mid-dark, blood samples are obtained under sodium hexobarbitol anesthesia and the serum is separated by centrifugation. […] The [^14 C]digitonides are then counted by liquid scintillation spectrometry. […] Inhibition of sterol synthesis is calculated from the reduction in the nCi of sterols formed from test groups compared to controls.

Setting [3] is: male Wistar Royal Hart rats, [1-14C]acetate i.p.

The structures appear in SMILES notation. Like-named read-outs stand apart in the source and are kept apart here.

Regarding `CCOC(=O)C[C@H](O)C[C@H](O)/C=C/c1c(C)cc2ccccc2c1-c1cc(C)cc(C)c1` (relative stereo) [Example 1, Ethyl erythro-(E)-3,5-dihydroxy-7-[1'-(3",5"-dimethylphenyl)-3-methylnaphth-2'-yl]hept-6-enoate], in assay [1], the IC50 is 80 nM. For the same compound, the “change in sterol synthesis (nCi of sterols formed) from test groups compared to controls” value in assay [2] (setting [3]) is on record as -35%.

Turning to `Cc1cc(C)cc(-c2c(/C=C/[C@@H](O)C[C@@H](O)CC(=O)O)c(C)cc3ccccc23)c1` (relative stereo) [Example 2, Sodium erythro-(E)-3,5-dihydroxy-7-[1'-(3",5"-dimethylphenyl)-3'-methylnaphth-2'-yl]hept-6-enoate], the IC50 in assay [1] was 10 nM. Besides, the ED50 in assay [2] (setting [3]) was 0.3 mg/kg.

Take `Cc1cc(C)cc(-c2c(/C=C/[C@@H]3C[C@@H](O)CC(=O)O3)c(C)cc3ccccc23)c1` (relative stereo) [Example 4, (E)-Trans-6-(2'-[1"-(3"',5"'-dimethylphenyl)-3"-methylnaphth-2"-yl]ethenyl)-4-hydroxy-3,4,5,6-tetrahydro-2H-pyran-2-one]: the IC50 in assay [1] was 330 nM. Moreover, the “change in sterol synthesis (nCi of sterols formed) from test groups compared to controls” value in assay [2] (setting [3]) is reported as -20%.

For the compound `CC[C@H](C)C(=O)O[C@H]1CCC=C2C=C[C@H](C)[C@H](CC[C@@H]3C[C@@H](O)CC(=O)O3)[C@H]21` [Compactin, reference compound], the IC50 in assay [1] is 770 nM. Besides, the 50% effective dose (ED50) in assay [2] (setting [3]) was 3.5 mg/kg.

As for `CC[C@H](C)C(=O)O[C@H]1C[C@@H](C)C=C2C=C[C@H](C)[C@H](CC[C@@H]3C[C@@H](O)CC(=O)O3)[C@H]21` [Mevinolin, reference compound], the ED50 in assay [2] was 0.41 mg/kg.

The ED50 is the midpoint of the dose-response relation.

The record behind these values is US4686237A, “Erythro-(E)-7-[3'-C1-3 alkyl-1'-(3",5"-dimethylphenyl)naphth-2'-yl]-3,5-dihydroxyhept-6-enoic acids and derivatives thereof” (Sandoz Pharmaceuticals Corp., priority 1986, dated 1987).
